Values joined by “and” are separate entries in the source; they are usually repeats but may differ in a detail not shown here. Equal entries are not always repeated. “Also recorded” adds a separate entry of the source. Where two headings read alike, the source gives them in different places.
Columns and labels:
[1] = system: SSTR2; experiment: β-arrestin recruitment with co-transfection of GRK2; assay type: cell-based, human; conditions: N276(6.55)A and F294(7.35)A with GRK2 co-transfection
Experimental: In addition, we measured the function of the residues located in the core region and the common ligand binding pocket.
Human full-length β-arrestin 1 was cloned into pcDNA3.1+ vector with the large fragment (LgBiT) of the NanoBiT system and a 15-amino acid flexible linker ([sequence]) at the N-terminus. Human full-length SSTR wild-type and mutant vectors were C-terminally fused with a 15-amino acid flexible linker and the small fragment (SmBiT). HEK293 cells were seeded into six-well microplates at a density of 1.0 × 10^6 cells/well and cultured for 24 h at 37 °C with 5% CO2. After that, cells were co-transfected with pcDNA3.1+ vectors encoding SSTR wild-type or mutants and human β-arrestin 1. After transfecting for 24 h, the transfected cells were suspended and seeded into white 96-well plates, and then cultured at 37 °C overnight. After that the medium in each well was exchanged for 90 μl of 0.01% bovine serum albumin containing 20 μl of 50 μM coelenterazine h (Carbosynth) diluted in the HBSS assay buffer and incubated for 40 min at room temperature. Then, ligands diluted in the assay buffer was added to each well and the luminescence intensity was measured using the Synergy H1 microplate reader and detected at room temperature in a time period. All data presented are means of at least three independent experiments.

[2] = molecular target: SSTR2 mutants (Homo sapiens, UniProt P30874, N276A);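 note: Read-out is the BRET ratio between Nluc-fused β-arrestin 1 and the early endosome marker FYVE-mVenus, measured after ligand addition with coelenterazine h as substrate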
Chain of SSTR2 mutants (Homo sapiens, UniProt P30874, N276A) (P30874 whole entry N276A, the tested form may be a part): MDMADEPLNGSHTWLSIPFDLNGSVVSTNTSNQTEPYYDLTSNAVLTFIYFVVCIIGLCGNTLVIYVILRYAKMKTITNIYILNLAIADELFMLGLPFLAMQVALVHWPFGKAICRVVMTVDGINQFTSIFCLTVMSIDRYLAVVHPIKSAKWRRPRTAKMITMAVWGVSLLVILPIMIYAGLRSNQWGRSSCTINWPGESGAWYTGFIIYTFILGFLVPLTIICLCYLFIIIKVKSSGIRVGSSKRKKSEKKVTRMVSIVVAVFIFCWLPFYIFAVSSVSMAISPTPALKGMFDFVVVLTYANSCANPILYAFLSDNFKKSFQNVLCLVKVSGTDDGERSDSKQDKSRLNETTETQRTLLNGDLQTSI

[3] = molecular target: SSTR3 mutants (Homo sapiens, UniProt P32745, F296D); experiment: SSTRs Gi-mediated cAMP inhibition, GloSensor, HEK293 (SSTR3 mutants); assay type: cell-based; set-up: Bottom / Top / Span / Top (best-fit): unit not given here
Chain of SSTR3 mutants (P32745 whole entry F296D): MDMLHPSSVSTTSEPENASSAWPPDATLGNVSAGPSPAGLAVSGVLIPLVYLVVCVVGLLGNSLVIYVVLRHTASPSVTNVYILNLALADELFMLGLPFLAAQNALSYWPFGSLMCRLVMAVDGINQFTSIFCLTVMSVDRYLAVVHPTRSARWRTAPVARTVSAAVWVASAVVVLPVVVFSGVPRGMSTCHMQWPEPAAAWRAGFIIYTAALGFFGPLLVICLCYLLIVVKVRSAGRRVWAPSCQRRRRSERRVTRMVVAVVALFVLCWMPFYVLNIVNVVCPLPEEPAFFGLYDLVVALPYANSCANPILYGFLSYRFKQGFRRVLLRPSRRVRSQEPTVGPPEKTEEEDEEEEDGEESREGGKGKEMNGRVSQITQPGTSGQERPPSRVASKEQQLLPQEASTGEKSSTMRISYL
Experimental: (§1) The levels of the intracellular 3′, 5′-cyclic AMP (cAMP) were measured by the GloSensor cAMP assay (Promega) as described in the previous studies[28],[41] which has been widely used. The human full-length SSTRs and mutants were cloned into the pcDNA3.1+ vector with a HA signal sequence followed by a Flag tag at the N-terminus. […] Cells were then co-transfected with SSTR wild-type or mutants and GloSensor plasmids. After 24 h of transfection, the cells were dissociated with TrypLE™ Express Enzyme (1X) (Thermo Fisher Scientific) and collected by centrifugation at 500 × g for 5 min. Then the collected cells were suspended in Hank’s balanced salt solution [HBSS (Thermo Fisher Scientific)] supplemented with […] potassium salt solution (YEASEN), and then the suspension cells were seeded into 96-well plates with 90 μl/well. After incubating at room temperature for 40 min, 5 μM forskolin and ligands diluted in HBSS were added to each well and the plates were incubated at room temperature for 15 min. […] signals were measured using the Synergy H1 microplate reader (BioTek) and the data presented are means of at least three independent experiments.

[4] = system: SSTR1–5; experiment: Gi signaling of SSTR1–5, cAMP inhibition, HEK293; assay type: cell-based, human; conditions: SSTR2 versus other SSTRs
Experimental: as §1

[5] = molecular target: T1, SSTR2 mutants (Homo sapiens, UniProt P30874, T194A); experiment: SSTRs Gi-mediated cAMP inhibition, GloSensor, HEK293, 5 μM forskolin, 15 min room temperature (SSTR2 mutants); assay type: cell-based; set-up: Best-fit Bottom, cAMP inhibition / Best-fit Top, cAMP inhibition / Span, cAMP inhibition / Bottom (best-fit value) / Top (best-fit value) / Span (best-fit value) / Span (best-fit) / Bottom (best-fit) / Top (best-fit) / Best-fit Bottom / Best-fit Top / Best-fit Span / Top / Span: scale not given here; conditions: T194A, best-fit, runs 1-3
T1 construct: The human full-length SSTRs and mutants were cloned into the pcDNA3.1+ vector; expressed in transfected cells; host or cells: HEK293 (ATCC, CRL-1573)
T1 sequence (P30874 whole entry T194A): as the sequence (P30874 whole entry N276A, the tested form may be a part) above, with T194A, A276N counted along it
Experimental: (§2) The levels of the intracellular 3′, 5′-cyclic AMP (cAMP) were measured by the GloSensor cAMP assay (Promega) as described in the previous studies[28],[41] which has been widely used. The human full-length SSTRs and mutants were cloned into the pcDNA3.1+ vector with a HA signal sequence followed by a Flag tag at the N-terminus. HEK293 cells (ATCC, CRL-1573) were seeded into 6-well microplates at a density of 1.0 × 10^6 cells/well and cultured for 24 h at 37 °C with 5% CO2. Cells were then co-transfected with SSTR wild-type or mutants and GloSensor plasmids. After 24 h of transfection, the cells were dissociated with TrypLE™ Express Enzyme (1X) (Thermo Fisher Scientific) and collected by centrifugation at 500 × g for 5 min. Then the collected cells were suspended in Hank’s balanced salt solution [HBSS (Thermo Fisher Scientific)] supplemented with […] (YEASEN), and then the suspension cells were seeded into 96-well plates with 90 μl/well. After incubating at room temperature for 40 min, 5 μM forskolin and ligands diluted in HBSS were added to each well and the plates were incubated at room temperature for 15 min. […] were measured using the Synergy H1 microplate reader (BioTek) and the data presented are means of at least three independent experiments.

[6] = molecular target: T2, SSTR2 mutants (Homo sapiens, UniProt P30874, L99A); experiment: as above; assay type: cell-based; set-up: Best-fit Bottom, cAMP inhibition / Best-fit Top, cAMP inhibition / Span, cAMP inhibition / Bottom (best-fit value) / Top (best-fit value) / Span (best-fit value) / Span (best-fit) / Bottom (best-fit) / Top (best-fit) / Best-fit Bottom / Best-fit Top / Best-fit Span / Top / Span: scale not given here; conditions: L99A, best-fit, runs 1-3
T2 construct: The human full-length SSTRs and mutants were cloned into the pcDNA3.1+ vector; expressed in transfected cells; host or cells: HEK293 (ATCC, CRL-1573)
T2 sequence (P30874 whole entry L99A): as the sequence (P30874 whole entry N276A, the tested form may be a part) above, with L99A, A276N counted along it
Experimental: as §2

[7] = molecular target: T3, SSTR2 mutants (Homo sapiens, UniProt P30874, Y50A); experiment: as above; assay type: cell-based; set-up: Best-fit Bottom, cAMP inhibition / Best-fit Top, cAMP inhibition / Span, cAMP inhibition / Bottom (best-fit value) / Top (best-fit value) / Span (best-fit value) / Span (best-fit) / Bottom (best-fit) / Top (best-fit) / Best-fit Bottom / Best-fit Top / Best-fit Span / Top / Span: scale not given here; conditions: Y50A, best-fit, runs 1-3
T3 construct: The human full-length SSTRs and mutants were cloned into the pcDNA3.1+ vector; expressed in transfected cells; host or cells: HEK293 (ATCC, CRL-1573)
T3 sequence (P30874 whole entry Y50A): as the sequence (P30874 whole entry N276A, the tested form may be a part) above, with Y50A, A276N counted along it
Experimental: as §2

[8] = molecular target: SSTR2 mutants (Homo sapiens, UniProt P30874); experiment: as above; assay type: cell-based; set-up: Best-fit Bottom, cAMP inhibition / Best-fit Top, cAMP inhibition / Span, cAMP inhibition / Bottom (best-fit value) / Top (best-fit value) / Span (best-fit value) / Span (best-fit) / Bottom (best-fit) / Top (best-fit) / Best-fit Bottom / Best-fit Top / Best-fit Span / Top / Span: scale not given here
Chain of SSTR2 mutants (Homo sapiens, UniProt P30874) (P30874 whole entry Y205R): as the sequence (P30874 whole entry N276A, the tested form may be a part) above, with Y205R, A276N counted along it
Experimental: as §2

[9] = molecular target: T4, SSTR2 mutants (Homo sapiens, UniProt P30874, I195A); experiment: as above; assay type: cell-based; set-up: Best-fit Bottom, cAMP inhibition / Best-fit Top, cAMP inhibition / Span, cAMP inhibition / Bottom (best-fit value) / Top (best-fit value) / Span (best-fit value) / Span (best-fit) / Bottom (best-fit) / Top (best-fit) / Best-fit Bottom / Best-fit Top / Best-fit Span / Top / Span: scale not given here; conditions: I195A, best-fit, runs 1-3
T4 construct: The human full-length SSTRs and mutants were cloned into the pcDNA3.1+ vector; expressed in transfected cells; host or cells: HEK293 (ATCC, CRL-1573)
T4 sequence (P30874 whole entry I195A): as the sequence (P30874 whole entry N276A, the tested form may be a part) above, with I195A, A276N counted along it
Experimental: as §2

[10] = system: SSTR2 Y302A mutant; set-up: method as in earlier work; conditions: Y302(7.43)A; ref 20 of peer review file (Zhao, W. et al., 2022); cited from earlier work

With `N#Cc1cccc(-c2ccc3ncc(-c4cc(F)cc(F)c4)c(N4CCC(N)CC4)c3c2)c1O` [paltusotine] the “β-arrestin recruitment with GRK2” value [1] was “influenced paltusotine induced β-arrestin recruitment”, the Emax [2] was 81 ± 1.71% and the EC50 [3] was 309000 ± 6300 pM. The Emax ([3]; HEK293) was 65.5 ± 6.4%, the “Fold of WT” value ([3]; Suppl. Table 4, SSTR3 F296(7.35)D) was 4.84 and the Bottom ([3]; best-fit, SSTR3 F296D-1) was 5.089. It also gave a LogEC50 ([3]; best-fit, SSTR3 F296D-1) of -6.01, a Span ([3]; best-fit, SSTR3 F296D-1) of 99.77 and a Top ([3]; best-fit, SSTR3 F296D-1) of 104.9. It also gave an EC50 ([3]; best-fit, SSTR3 F296D-1, read-out: EC50) of 978000 pM, a Bottom ([3]; best-fit, SSTR3 F296D-2) of 18.98 and a LogEC50 ([3]; best-fit, SSTR3 F296D-2) of -6.627. For the same compound, the Span ([3]; best-fit, SSTR3 F296D-2) was 120, the Top ([3]; best-fit, SSTR3 F296D-2) was 139 and the EC50 ([3]; best-fit, SSTR3 F296D-2, read-out: EC50) was 236000 pM. It also gave a Bottom ([3]; best-fit, SSTR3 F296D-3) of 12.18, a LogEC50 ([3]; best-fit, SSTR3 F296D-3) of -6.94 and a Span ([3]; best-fit, SSTR3 F296D-3) of 133.1. The Top ([3]; best-fit, SSTR3 F296D-3) was 145.3, the EC50 ([3]; best-fit, SSTR3 F296D-3, read-out: EC50) was 115000 pM and the Subtype selectivity [4] was “highly selective agonist of SSTR2 relative to other SSTR subtypes; also recorded: more potent selectivity for SSTR2; also recorded: higher selectivity and efficacy towards SSTR2 relative to other group 2 SSTRs”. For the same compound, the Span [5] was 81 and 79.63 and 75.68, the Top [5] was 82.51 and 80.87 and 82.26 and the Span [6] was 97 and 104.2 and 101.2. For the same compound, the Top [6] was 103.3 and 108.8 and 111.2, the Span [7] was 121 and 122.3 and the Top [7] was 113.5 and 115.2 and 115.4. For the same compound, the EC50 ([8]; EC50, D295F, run 1) was 324 pM, the EC50 ([8]; EC50, D295F, run 2) was 205 pM and the EC50 ([8]; EC50, D295F, run 3) was 1560 pM. It also gave an EC50 ([8]; EC50, F294Y, run 1) of 735 pM, an EC50 ([8]; EC50, F294Y, run 3) of 676 pM and an EC50 ([8]; EC50, Y205R, run 1) of 344 pM. The EC50 ([8]; EC50, Y205R, run 2) was 237 pM, the Span [9] was 93.79 and 93.25 and 119.7 and the Top [9] was 101.8 and 93.82 and 123.

For `C[C@@H](O)[C@@H]1NC(=O)[C@H](CCCCN)NC(=O)[C@@H](Cc2c[nH]c3ccccc23)NC(=O)[C@H](Cc2ccccc2)NC(=O)[C@@H](NC(=O)[C@H](N)Cc2ccccc2)CSSC[C@@H](C(=O)N[C@H](CO)[C@@H](C)O)NC1=O` [octreotide], the “β-arrestin recruitment with GRK2” value [1] is listed as “nearly abolished” and the Binding to mutant [10] is listed as “nearly abolished the binding”.
